Experimental data from patent US11584752B2, “Method for controlled release using mechanical force” (California Institute of Technology, priority 2020, dated 2023).
“Also recorded” adds a separate entry of the source. Values belong to the compound of their own block, whether it stands above or below them.

Columns and labels:
[1] = Thermal stability of Diels-Alder adducts in toluene-d8 (retro-Diels-Alder conversion by 1H NMR); assay type: physicochemical
From the text: For example, FIGS. 7A and 7B illustrate that addition of the 3-phenoxy group to the furan moiety leads to a pronounced increase in the thermal stability of the Diels-Alder adduct of many embodiments. Not to be bound by any theory, this effect has been observed previously for cycloadducts derived from 3-alkoxy-furans, and it has been ascribed to a reduction in the energetic penalty for loss of furan aromaticity (as explained, for example in: Boutelle, R. C.; Northrop, B. H. Substituent Effects on the Reversibility of Furan-Maleimide Cycloadditions. J. Org. Chem. 2011, 76, 7994-8002; and Foster, R. W.; et al. Irreversible endo-Selective Diels-Alder Reactions of Substituted Alkoxyfurans: A General Synthesis of endo-Cantharimides. Chemistry 2015, 21, 6107-6114, the disclosures of which are incorporated herein by reference). Accordingly, FIG. 7A illustrates that, […] after 5 h, while the same conditions lead to approximately 46% reversion of the analogous Diels-Alder adduct (±)-216 without the 3-phenoxy substituent. […] Accordingly, in many embodiments, 3-phenoxy, or any similar aryloxy substituent at 3-position of the furan moiety enhances the thermal stability of such mechanophore platforms without any detriment to their mechanochemical activity.
In comparison, as described herein, heating the Diels-Alder adduct comprising a 3-OPh substituted furan moiety at 70° C. under the same conditions results in <2% retro-Diels-Alder conversion, while for the Diels-Alder adduct comprising neither substituent the conversion ˜46% under the same heating conditions.

[2] = Decomposition of model 2-furylcarbinol derivatives in solution at room temperature, followed by NMR and photoluminescence spectroscopy
From the text: The generation of hydroxycoumarin 2 in the room temperature solution of furfuryl carbonate 1 in MeCN:MeOH (3:1) was also monitored over time using fluorescence spectroscopy (FIG. 3C).
Furthermore, FIG. 8C illustrates the kinetics of the decomposition of furfuryl carbamates comprising α-methyl, 3-phenoxy, and 5-position substituents according to many embodiments, such as exemplified by 21, and compares them to the furfuryl carbamates without the 3-phenoxy substitution, such as exemplified by furfuryl carbamate 22. More specifically, FIG. 8C provides data from experimental studies, wherein the decompositions of 21 and 22 to generate aminocoumarin 23 were monitored as a function of time using NMR and PL spectroscopy.

[3] = toluene-d8, room temperature, after 132 days

SMILES: CC(O)C12OC(COC(=O)C(C)(C)Br)(C=C1Oc1ccccc1)C1C(=O)N(CCOC(=O)C(C)(C)Br)C(=O)C12 (racemic) [(±)-29, (2-(2-((2-bromo-2-methylpropanoyl)oxy)ethyl)-7-(1-hydroxyethyl)-1,3-dioxo-6-phenoxy-1,2,3,3a,7,7a-hexahydro-4H-4,7-epoxyisoindol-4-yl)methyl 2-bromo-2-methylpropanoate]
- retro-Diels-Alder conversion ([1]; toluene-d8, 70° C., after 5 h): < 2%
- retro-Diels-Alder conversion ([1]; toluene-d8, 70° C., after 21 h): < 7%
- thermal stability ([1]; toluene-d8, room temperature): stable indefinitely
- retro-Diels-Alder conversion [1, 3]: no reaction is observed

SMILES: CC(C)(Br)C(=O)OCCc1ccc(OC23C=CC(CO)(O2)C2C(=O)N(CCOC(=O)C(C)(C)Br)C(=O)C23)cc1 (racemic) [(±)-33, 4-((2-(2-((2-bromo-2-methylpropanoyl)oxy)ethyl)-7-(hydroxymethyl)-1,3-dioxo-1,2,3,3a,7,7a-hexahydro-4H-4,7-epoxyisoindol-4-yl)oxy)phenethyl 2-bromo-2-methylpropanoate]
- retro-Diels-Alder conversion ([1]; toluene-d8 (7.7 mM), room temperature, nearly two months): negligible; also recorded: no detectable products
- retro-Diels-Alder conversion ([1]; toluene-d8, 70° C., after 21 h): ~35%

SMILES: CC(O)[C@@]12C=C[C@@](COC(=O)C(C)(C)Br)(O1)[C@@H]1C(=O)N(CCOC(=O)C(C)(C)Br)C(=O)[C@@H]12 (mixture of isomers) [(±)-216]
- retro-Diels-Alder conversion ([1]; toluene-d8, 70° C., after 5 h): approximately 46%
- retro-Diels-Alder conversion ([1]; toluene-d8, 70° C., after 21 h): nearly quantitative
- thermal stability ([1]; toluene-d8, room temperature): slow, but detectable, reversion
- retro-Diels-Alder conversion [1, 3]: approximately 23%

SMILES: Cc1cc(=O)oc2cc(OC(=O)OCc3ccc(COC(=O)C(C)(C)Br)o3)ccc12 [Compound S2, (5-(((((4-methyl-2-oxo-2H-chromen-7-yl)oxy)carbonyl)oxy)methyl)furan-2-yl)methyl 2-bromo-2-methylpropanoate]
- estimated half-lives for decomposition ([2]; room temperature): several weeks

Continued, values first:

- stability in solvent ([2]; DCM, chloroform, and hexanes): relatively stable
- half-life ([2]; acetonitrile-d3/methanol solution, reaction half-life t1/2 of decomposition, 3:1 (v/v) acetonitrile-d3/methanol, room temperature, from NMR measurements): 1.32 h
- stability in solvent ([2]; acidic and protic solvents): decomposes quickly
- stability in solvent ([2]; chloroform and acetonitrile): relatively stable
- half-life ([2]; water/acetonitrile-d3 solution, half-life of decomposition, water/acetonitrile mixture (water 25% by volume in acetonitrile-d3), room temperature, NMR): ~0.133 h
SMILES: Cc1cc(=O)oc2cc(OC(=O)OC(C)c3ccc(COC(=O)C(C)(C)Br)o3)ccc12 (centres unmarked) [Compound 1, (5-(1-((((4-methyl-2-oxo-2H-chromen-7-yl)oxy)carbonyl)oxy)ethyl)furan-2-yl)methyl 2-bromo-2-methylpropanoate]

- time to full conversion to products ([2]; 3:1 MeCN/MeOH, room temperature): approximately 5 h
- half-life at 19 μM ([2]; MeCN-d3/MeOH solution, half-life for decomposition t1/2, 3:1 MeCN-d3/MeOH, room temperature, NMR, first-order fit): 0.567 h
SMILES: Cc1cc(=O)oc2cc(NC(=O)OC(C)c3oc(COC(=O)C(C)(C)C)cc3Oc3ccccc3)ccc12 (centres unmarked) [Compound 21, (5-(1-(((4-methyl-2-oxo-2H-chromen-7-yl)carbamoyl)oxy)ethyl)-4-phenoxyfuran-2-yl)methyl pivalate]

- conversion ([2]; 19.6 mM in MeCN-d3:MeOH (3:1), room temperature, after 134 days, 1H NMR): approximately 40%
- decomposition reactivity ([2]; 3:1 MeCN/MeOH, room temperature, same conditions as 21): completely unreactive
SMILES: Cc1cc(=O)oc2cc(NC(=O)OC(C)c3ccc(COC(=O)C(C)(C)C)o3)ccc12 (centres unmarked) [Compound 22, (5-(1-(((4-methyl-2-oxo-2H-chromen-7-yl)carbamoyl)oxy)ethyl)furan-2-yl)methyl pivalate]

- half-life at 21 mM ([2]; acetonitrile-d3/methanol solution, half-life for consumption t1/2, 3:1 acetonitrile-d3/methanol, room temperature, NMR, 21 mM): 9.3 h
- yield of aminocoumarin released ([2]; acetonitrile/methanol (3:1 v/v), room temperature): nearly quantitative
- half-life ([2]; acetonitrile/methanol solution, half-life of consumption and aminocoumarin generation, acetonitrile/methanol (3:1 v/v), room temperature, 1H NMR and PL): ~10 h
SMILES: Cc1cc(=O)oc2cc(NC(=O)OCc3ccc(Oc4ccc(CCOC(=O)C(C)(C)Br)cc4)o3)ccc12 [Compound 35, 4-((5-((((4-methyl-2-oxo-2H-chromen-7-yl)carbamoyl)oxy)methyl)furan-2-yl)oxy)phenethyl 2-bromo-2-methylpropanoate]
